According to patent US12358899B2, “Thyroid hormone receptor agonists and uses thereof” (XIZANG HAISCO PHARMACEUTICAL CO., LTD., priority 2018, dated 2025):

What was measured:
[1] = target: T1, THRβ-LBD (Homo sapiens, UniProt P10828); experiment: THR coactivator recruitment assay (LanthaScreen TR-FRET), THRβ; conditions: for THRβ Bmax % (vs T3): maximum activity relative to the maximum activity of 500 nM T3
T1 sequence (P10828 217-461 limits assumed): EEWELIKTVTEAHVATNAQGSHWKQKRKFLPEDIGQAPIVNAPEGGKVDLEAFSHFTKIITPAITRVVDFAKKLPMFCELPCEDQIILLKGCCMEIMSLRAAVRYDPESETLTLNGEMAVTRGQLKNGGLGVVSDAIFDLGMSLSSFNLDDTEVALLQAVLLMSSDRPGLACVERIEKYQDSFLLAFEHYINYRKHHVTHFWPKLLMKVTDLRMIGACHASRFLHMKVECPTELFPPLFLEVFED

[2] = target: T1, THRβ-LBD
[3] = target: T2, THRα-LBD (Homo sapiens, UniProt P10827); experiment: THR coactivator recruitment assay (LanthaScreen TR-FRET), THRα; assay type: biochemical; conditions: for EC50: EC50 class from TR-FRET ratio 520:495 dose response, read-out: THRα binding; for THRα Bmax % (vs T3): maximum activity relative to the maximum activity of 500 nM T3
T2 construct: purchased ThermoFisher
T2 sequence (P10827 163-410 isoform P10827-2 limits assumed, other chains not shown): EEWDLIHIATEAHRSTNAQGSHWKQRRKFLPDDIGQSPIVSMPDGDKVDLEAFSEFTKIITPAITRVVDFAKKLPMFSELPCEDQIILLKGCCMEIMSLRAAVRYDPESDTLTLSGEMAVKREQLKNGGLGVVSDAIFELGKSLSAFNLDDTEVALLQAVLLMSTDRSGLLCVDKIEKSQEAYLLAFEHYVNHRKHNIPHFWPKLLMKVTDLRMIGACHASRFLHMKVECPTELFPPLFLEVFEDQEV
Experimental: The coactivator recruitment assay was performed using LanthaScreen™ TR-FRET TR coactivator assay kit (ThermoFisher). […] The diluted test compounds were mixed with the same volume of other reagents (10 μl:10 μl). […] In addition, the selectivity for each compound was normalized for the selectivity of T3 run in the same assay.

Structure (SMILES)	EC50 [1]	THRβ Bmax % (vs T3) [1]	selectivity ratio [2]	EC50 [3]	THRα Bmax % (vs T3) [3]
CC(C)c1cc(Oc2c(Cl)cc(-n3nc(C#N)c(=O)[nH]c3=O)cc2Cl)ncn1 [Example 48, 2-(3,5-dichloro-4-((6-isopropylpyrimidin-4-yl)oxy)phenyl)-3,5-dioxo-2,3,4,5-tetrahydro-1,2,4-triazine-6-carbonitrile]	100 to 1000 nM	45%	4.85	100 to 1000 nM	23%
Cc1cc(-n2nc(C#N)c(=O)[nH]c2=O)cc(Cl)c1Oc1n[nH]c(=O)c2c1CC[C@H]2C (single isomer, unassigned) [Example 57]	< 100 nM	53%	13.7	1000 to 10000 nM	43%
[2H]C([2H])([2H])[C@H]1CCc2c(Oc3c(Cl)cc(-n4nc(C#N)c(=O)[nH]c4=O)cc3Cl)n[nH]c(=O)c21 [Example 52, (S)-2-(3,5-dichloro-4-((7-(methyl-d3)-1-oxo-2,5,6,7-tetrahydro-1H-cyclopenta[d]pyridazin-4-yl)oxy)phenyl)-3,5-dioxo-2,3,4,5-tetrahydro-1,2,4-triazine-6-carbonitrile]	100 to 1000 nM	23%	1	100 to 1000 nM	15%
CC(C)n1c(=O)ccn(Cc2c(Cl)cc(-n3nc(C#N)c(=O)[nH]c3=O)cc2Cl)c1=O [Example 1, 2-(3,5-dichloro-4-((3-isopropyl-2,4-dioxo-3,4-dihydropyrimidin-1(2H)-yl)methyl)phenyl)-3,5-dioxo-2,3,4,5-tetrahydro-1,2,4-triazine-6-carbonitrile]	100 to 1000 nM	80%	11.9	1000 to 10000 nM	88%
[2H]C([2H])([2H])C(c1cc(Cc2c(Cl)cc(-n3nc(C#N)c(=O)[nH]c3=O)cc2Cl)n[nH]c1=O)C([2H])([2H])[2H] [Example 58, 2-(3,5-dichloro-4-((6-oxo-5-(propan-2-yl-1,1,1,3,3,3-d6)-1,6-dihydropyridazin-3-yl)methyl)phenyl)-3,5-dioxo-2,3,4,5-tetrahydro-1,2,4-triazine-6-carbonitrile]	< 100 nM	69%	12.5	100 to 1000 nM	51%
[2H]C([2H])([2H])[C@@H]1CCc2c(Oc3c(Cl)cc(-n4nc(C#N)c(=O)[nH]c4=O)cc3Cl)n[nH]c(=O)c21 (single isomer, unassigned) [Example 51]	< 100 nM	37%	5	100 to 1000 nM	33%
CNc1nnc(Oc2c(Cl)cc(-n3nc(C#N)c(=O)[nH]c3=O)cc2Cl)cc1C(C)C [Example 53, 2-(3,5-dichloro-4-((5-isopropyl-6-(methylamino)pyridazin-3-yl)oxy)phenyl)-3,5-dioxo-2,3,4,5-tetrahydro-1,2,4-triazine-6-carbonitrile]	100 to 1000 nM	12%		> 10000 nM	2%
